The target of this assay is T1, human PPARalpha receptor (GR-GAL4-humanPPARalpha-LBD fusion protein) (Homo sapiens, UniProt Q07869).
T1 construct: amino acids S167-Y468; expressed in transfected cells; host or cells: HEK (human embryo kidney) cells, stably transfected with pcDNA3 carrying the fusion construct
T1 sequence (Q07869 167-468): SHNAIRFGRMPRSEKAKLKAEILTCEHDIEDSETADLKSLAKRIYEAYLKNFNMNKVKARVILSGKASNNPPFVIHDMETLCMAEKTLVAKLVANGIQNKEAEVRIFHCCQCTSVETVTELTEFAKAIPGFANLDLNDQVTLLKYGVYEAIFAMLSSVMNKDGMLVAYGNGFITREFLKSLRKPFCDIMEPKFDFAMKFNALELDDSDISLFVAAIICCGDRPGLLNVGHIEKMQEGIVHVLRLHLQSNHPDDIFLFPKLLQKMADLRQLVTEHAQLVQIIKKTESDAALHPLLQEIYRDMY
Kind of assay: Cellular PPARalpha assay (stably transfected HEK luciferase reporter cell line). It is filed as cell-based. As to conditions: 24 h incubation. Here is the method:
(A) Determination of EC50 Values of PPAR Agonists in the Cellular PPARalpha Assay
The potency of substances which bind to human PPAR[…] and activate in an agonistic manner is analyzed using a stably transfected HEK cell line (HEK=human embryo kidney) which is referred to here as PPARalpha reporter cell line. It contains two genetic elements, a luciferase reporter element (pΔM-GAL4-Luc-Zeo) and a PPARalpha fusion protein (GR-GAL4-humanPPARα-LBD) which mediates expression of the luciferase reporter element depending on a PPARalpha ligand. The stably and constitutively expressed fusion protein GR-GAL4-humanPPARalpha-LBD binds in the cell nucleus of the PPARalpha reporter cell line via the GAL4 protein portion to the GAL4 DNA binding motifs 5′-upstream of the luciferase reporter element which is integrated in the genome of the cell line. There is only little expression of the luciferase reporter gene without addition of a PPARalpha ligand if fatty acid-depleted fetal calf serum (cs-FCS) is used in the assay. PPARα ligands bind and activate the PPARα fusion protein and thereby bring about expression of the luciferase reporter gene. The luciferase which is formed can be detected by means of chemi-luminescence via an appropriate substrate.
The PPARalpha reporter cell line was prepared in 2 stages. Firstly, the luciferase reporter element was constructed and stably transfected into HEK cells. For this purpose, five binding sites of the yeast transcription factor GAL4 (each 5′-CGGAGTACTGTCCTCCGAG-3′) (SEQ ID NO:1) were cloned in 5′-upstream of a 68 bp-long minimal MMTV promoter (Genbank Accession # V01175). The minimal MMTV promoter section contains a CCAAT box and a TATA element in order to enable efficient transcription by RNA polymerase II. The cloning and sequencing of the GAL4-MMTV construct took place in analogy to the description of Sambrook J. et. al. (Molecular cloning, Cold Spring Harbor Laboratory Press, 1989). Then the complete Photinus pyralis gene (Genbank Accession # M15077) was cloned in 3′-downstream of the GAL4-MMTV element. After sequencing, the luceriferase reporter element consisting of five GAL4 binding sites, MMTV promoter and luciferase gene was recloned into a plasmid which confers zeocin resistance in order to obtain the plasmid pΔM-GAL4-Luc-Zeo. This vector was transfected into HEK cells in accordance with the statements in Ausubel, F. M. et al. (Current protocols in molecular biology, Vol. 1-3, John Wiley & Sons, Inc., 1995). […] In a second step, the PPARalpha fusion protein (GR-GAL4-humanPPARalpha-LBD) was introduced into the stable cell clone described. For this purpose, initially the cDNA coding for the N-terminal 76 amino acids of the glucocorticoid receptor (Genbank Accession # P04150) was linked to the cDNA section coding for amino acids 1-147 of the yeast transcription factor GAL4 (Genbank Accession # P04386). The cDNA of the ligand-binding domain of the human PPARalpha receptor (amino acids S167-Y468; Genbank Accession # S74349) was cloned in at the 3′-end of this GR-GAL4 construct. The fusion construct prepared in this way (GR-GAL4-humanPPARalpha-LBD) was recloned into the plasmid pcDNA3 (from Invitrogen) in order to enable constitutive expression therein by the cytomegalovirus promoter. This plasmid was linearized with a restriction endonuclease and stably transfected into the previously described cell clone containing the luciferase reporter element. The finished PPARalpha reporter cell line which contains a luciferase reporter element and constitutively expresses the PPARalpha fusion protein (GR-GAL4-human PPARalpha-LBD) was isolated by selection with zeocin (0.5 mg/ml) and G418 (0.5 mg/ml).
The activity of PPARalpha agonists is determined in a 3-day assay which is described below: […]
In general terms: A reporter such as luciferase makes a cellular process visible.

One may read the EC50 as the concentration needed to bring the measured effect to its halfway point. Read a low EC50 as greater potency.

Regarding `Cc1oc(-c2cccc(C(F)(F)F)c2)nc1COC1CCCC(C(=O)N[C@H](C(=O)O)C(C)C)C1` (stereo partly drawn) [Example 11, (S)-3-Methyl-2-({(1R,3S)/(1S,3R)-3-[5-methyl-2-(3-trifluoromethylphenyl)-oxazol-4-ylmethoxy]cyclohexanecarbonyl}amino)butyric acid], the EC50 was determined as 15 nM.
The figure for `CCc1oc(-c2ccc(C)cc2)nc1CO[C@H]1CCC[C@@H](C(=O)N[C@H](C(=O)O)C(C)C)C1` [Example 21a, (S)-3-methyl-2-{[(1R,3S)-3-(5-ethyl-2-p-tolyloxazol-4-ylmethoxy)cyclohexanecarbonyl]amino}butyric acid] is 5 nM; for `CC(C)c1oc(-c2ccc(C(F)(F)F)cc2)nc1COCC1CCCC(C(=O)N[C@H](C(=O)O)C(C)C)C1` (some centres unmarked) [Example 43] it is 32 nM.
With `Cc1ccc(-c2nc(COC3CCCC(C(=O)NC(C)(C)C(=O)O)C3)c(C)o2)cc1` (racemic) [Example 5, 2-Methyl-2-{[(1R,3S)/(1S, 3R)-3-(5-methyl-2-p-tolyloxazol-4-ylmethoxy)-cyclohexanecarbonyl]amino}propionic acid], the concentration for a half-maximal effect (EC50) amounted to 29 nM.
For `CCc1oc(-c2ccc(C(F)(F)F)cc2)nc1COCC1CCCC(C(=O)N[C@H](C(=O)O)C(C)C)C1` (some centres unmarked) [Example 50] the value was 1.2 nM.
For `Cc1ccc(-c2nc(COC3CCCC(C(=O)NC4(C(=O)O)CCCC4)C3)c(C)o2)cc1` (racemic) [Example 25, 1-{[(1R,3S)/(1S,3R)-3-(5-Methyl-2-p-tolyloxazol-4-ylmethoxy)cyclohexanecarbonyl]amino}cyclopentanecarboxylic acid] the value was 7.2 nM; for `Cc1oc(-c2cccc(C(F)(F)F)c2)nc1COCC1CCCC(C(=O)N[C@H](C(=O)O)C(C)C)C1` (some centres unmarked) [Example 44], 4.5 nM; for `Cc1ccc(-c2nc(COC3CCCC(C(=O)N[C@@H](C)C(=O)O)C3)c(C)o2)cc1` (stereo partly drawn) [Example 3, (S)-2-{[(1R,3S)/(1S,3R)-3-(5-Methyl-2-p-tolyloxazol-4-ylmethoxy)cyclohexanecarbonyl]amino}propionic acid], 99 nM.

Values taken from patent publication US7365084B2, “Cycloalkyl-substituted amino acid derivatives, processes for their preparation and their use as pharmaceuticals” (SanoFi-Aventis Deutschland GmbH, priority 2003, dated 2008).
